Results taken from article PMC9895061 (Signal Transduction and Targeted Therapy, 2023).
Read-outs that look alike come from different tables or passages of the source.

Legend:
PRDX2 = molecular target: T1, PRDX2 (Homo sapiens, UniProt P32119); assay: Trx-TrxR-NADPH coupling peroxiredoxin activity assay, PRDX2; assay type: biochemical
T1 sequence (P32119 1-198): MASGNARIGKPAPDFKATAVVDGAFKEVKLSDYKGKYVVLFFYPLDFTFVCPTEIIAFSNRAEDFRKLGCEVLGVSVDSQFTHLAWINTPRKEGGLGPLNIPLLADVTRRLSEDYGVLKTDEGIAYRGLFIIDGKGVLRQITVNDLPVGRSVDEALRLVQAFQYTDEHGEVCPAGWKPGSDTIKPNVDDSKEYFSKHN

NCM460 cells [1] = assay: ROS measurement by DCFH-DA staining and flow cytometry, NCM460; assay type: cell-based, human; details: 2 μM, 24 h
Experimental: (§1) […]. DCFH-DA was deacetylated by intracellular esterase to a non-fluorescent compound, which was later oxidized by intracellular ROS to the fluorescent DCF. DCF fluorescence was detected using flow cytometer and data was analyzed using FlowJo software (version 10.4).
b ROS measurement of NCM460 cells with compounds treatment. […].

gNS SW620 cells = assay: Proliferation IC50 in scrambled (gNS) SW620 cells; assay type: cell-based; details: Homo sapiens, SW-620, 24 h, read-out: IC50 against the proliferation of scrambled (gNS) SW620 cells
Experimental: (§2) To generate PRDX1 knockdown cell lines, gRNA targeting […] was cloned into the vector pHBLV-U6-gRNA-EF1-CAS9-PURO from HanBio. The gRNA, psPAX2, and pMD2·G plasmids were mixed and co-transfected into HEK293T cells using Lipofectamine 2000 (Thermo Fisher Scientific). Medium with lentiviruses was collected and filtered through 0.45 μm filters at 48 h after transfection. Lentiviruses was used to infect the indicated cells with 8 μg/mL polybrene (Sigma-Aldrich) for 2 days. The infected cells were selected in medium containing 2 μg/mL puromycin (Sigma-Aldrich) for 3 days, and PRDX1 protein expression level were examined by western blot.
(§3) SW620 or HCT116 cells were seeded into 96-well plate overnight at 5000 cells per well or 4000 cells per well respectively. […] Cell numbers were assessed using the CCK-8 reagent at OD 450. The IC50 values were calculated by fitting the data points with the dose-response function in GraphPad.

SW620 cells [2] = assay: ROS measurement by DCFH-DA staining and flow cytometry, SW620; assay type: cell-based, human; details: 2 μM, 24 h
Experimental: as §1
(§4) g, h ROS measurement of SW620 (g) and HCT116 (h) cells with compounds treatment. […].

PRDX4 = molecular target: T2, PRDX4 (Homo sapiens, UniProt Q13162); assay: Trx-TrxR-NADPH coupling peroxiredoxin activity assay, PRDX4; assay type: biochemical; details: for inhibition of the peroxidase activity of PRDX4 (in words): recombinant PRDX4
T2 sequence (Q13162 38-271): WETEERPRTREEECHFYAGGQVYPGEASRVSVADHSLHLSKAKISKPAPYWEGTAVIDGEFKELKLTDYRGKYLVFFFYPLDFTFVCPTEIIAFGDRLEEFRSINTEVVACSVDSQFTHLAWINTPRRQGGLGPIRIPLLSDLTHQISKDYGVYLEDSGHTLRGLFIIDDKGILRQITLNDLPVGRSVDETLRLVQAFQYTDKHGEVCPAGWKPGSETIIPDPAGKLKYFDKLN

HCT116 cells [3] = assay: CCK-8 proliferation assay, HCT116; assay type: cell-based; details: Homo sapiens, HCT-116; 24 h treatment
Experimental: as §3

SW620 cells [4] = assay: Cell viability by trypan blue staining, SW620; details: for viability at 0.5 µM: Homo sapiens, SW-620, 24 h, read-out: cells viability, SW620
Experimental: (§5) Total cell number and viability were counted with trypan blue staining. To measure apoptosis, cells were harvested and followed by flow cytometric analysis using the Annexin V-FITC / PI apoptosis detection kit according to the manufacturer’s protocol. Cell apoptosis was analyzed by FlowJo software.
(§6) e, f Cell viability were measured by trypan-blue staining.

gPRDX1 SW620 cells = assay: Proliferation IC50 in PRDX1 knockdown (gPRDX1) SW620 cells; assay type: cell-based; details: Homo sapiens, SW-620, 24 h, read-out: IC50 against the proliferation of PRDX1 knockdown (gPRDX1) SW620 cells
Experimental: as §2, §3

[5] = Body weight of xenograft-bearing nude mice; details: 2 mg/kg, day 12, average of gNS and gPRDX1 groups
SW620 cells [6] = assay: CCK-8 proliferation assay, SW620; assay type: cell-based; details: Homo sapiens, SW-620; 24 h treatment
Experimental: as §3

SW620-gNS xenografts = assay: SW620-gNS xenograft tumor growth in nude mice; details: 2 mg/kg intraperitoneally, 5 days per week for 2 weeks
NCM460 cells [7] = assay: Proliferation IC50 in NCM460; assay type: cell-based; details: Homo sapiens, NCM460, 24 h, read-out: IC50 of proliferation, NCM460
HCT116 cells [8] = assay: Cell viability by trypan blue staining, HCT116; details: for viability at 0.5 µM: Homo sapiens, HCT-116, 24 h, read-out: cells viability, HCT116
Experimental: as §5, §6

PRDX3 = molecular target: T3, PRDX3 (Homo sapiens, UniProt P30048); assay: Trx-TrxR-NADPH coupling peroxiredoxin activity assay, PRDX3; assay type: biochemical
T3 sequence (P30048 62-256): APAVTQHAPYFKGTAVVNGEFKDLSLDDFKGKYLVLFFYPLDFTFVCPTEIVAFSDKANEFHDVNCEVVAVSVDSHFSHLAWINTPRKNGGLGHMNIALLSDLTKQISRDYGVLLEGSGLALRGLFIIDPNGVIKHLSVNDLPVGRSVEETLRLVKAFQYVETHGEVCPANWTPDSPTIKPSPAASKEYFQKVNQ

HCT116 cells [9] = assay: ROS measurement by DCFH-DA staining and flow cytometry, HCT116; assay type: cell-based, human; details: 2 μM, 24 h
Experimental: as §1, §4

| SMILES | intracellular ROS positive rate, NCM460 (NCM460 cells [1]) [%] | IC50 (gNS SW620 cells) [nM] | ROS-positive rate, SW620 (SW620 cells [2]) [%] | inhibition of the peroxidase activity of PRDX4 (in words) (PRDX4) | IC50 (HCT116 cells [3]) [nM] | viability at 0.5 µM (SW620 cells [4]) [%] | IC50 (gPRDX1 SW620 cells) [nM] | body weight loss as compared to DMSO control [5] [%] | IC50 (SW620 cells [6]) [nM] | tumor progression of SW620-gNS xenografts (in words) (SW620-gNS xenografts) | IC50 (NCM460 cells [7]) [nM] | viability at 0.5 µM (HCT116 cells [8]) [%] | ROS-positive rate, HCT116 (HCT116 cells [9]) [%] | other results |
| --- | --- | --- | --- | --- | --- | --- | --- | --- | --- | --- | --- | --- | --- | --- |
| CC1=C(O)C(=O)C=C2C1=CC=C1[C@@]2(C)CC[C@@]2(C)[C@@H]3C[C@](C)(C(=O)O)CC[C@]3(C)CC[C@]12C [Celastrol, reference compound] | 26.5 | 634 ± 11.3 | 61.07 | no obvious inhibitory effect | 894 | ~80 | 494 ± 10.8 | 11.2 | 690 | suppressed the overall tumor progression | 2660 | ~80 | 88.4 | IC50 (PRDX2): 3790 ± 260 nM; IC50 (PRDX4): > 100000 nM; IC50 (PRDX3): 6670 ± 520 nM |
| COC(=O)[C@H](C)NC(=O)N[C@]1(C)CC[C@]2(C)CC[C@]3(C)C4=CC=C5C(=CC(=O)C(O)=C5C)[C@]4(C)CC[C@@]3(C)[C@@H]2C1 [19-048, Methyl (((2R,4aS,6aS,12bR,14aS,14bR)-10-hydroxy-2,4a,6a,9,12b,14a-hexamethyl-11-oxo-1,2,3,4,4a,5,6,6a,11,12b,13,14,14a,14b-tetradecahydropicen-2-yl)carbamoyl)-L-alaninate] | 29.13 | 529 ± 6.69 | 74.77 | no obvious inhibition | 816 | ~80 | 431 ± 9.14 | 7.3 | 528 | suppressed the overall tumor progression | 2230 | ~80 | 91.7 | inhibition of the peroxidase activity of PRDX2 (in words) (PRDX2; recombinant PRDX2): no obvious inhibition; IC50 (PRDX2; recombinant PRDX2, 1.5 h incubation, mean ± SEM, triplicate, read-out: IC50 against the peroxidase activity of PRDX2): > 100000 nM; IC50 (PRDX4; recombinant PRDX4, 1.5 h incubation, read-out: IC50 against the peroxidase activity of PRDX4): > 100000 nM; cell viability at high concentrations, SW620 (in words) (SW620 cells [4]; 1, 2 μM, 24 h, trypan blue): significantly decreased cell viability; cell viability at high concentrations, HCT116 (in words) (HCT116 cells [8]; 1, 2 μM, 24 h, trypan blue): significantly decreased cell viability; inhibition of the peroxidase activity of PRDX3 (in words) (PRDX3; recombinant PRDX3): no obvious inhibition; IC50 (PRDX3; recombinant PRDX3, 1.5 h incubation, mean ± SEM, triplicate, read-out: IC50 against the peroxidase activity of PRDX3): > 100000 nM |
